Test results reported in article PMC9116245, “New 1,2,3-triazole linked ciprofloxacin-chalcones induce DNA damage by inhibiting human topoisomerase I& II and tubulin polymerization” (Journal of Enzyme Inhibition and Medicinal Chemistry, 2022).

Tests used:
Assay type in all cases: cell-based
[1] = test system: SK-MEL-2; test: NCI one-dose screen; conditions: Homo sapiens; SK-MEL-2, 10 µM; read-out: Growth Percent
Method: (§1) For screening of anticancer properties, all the developed compounds were chosen by the (NCI) for in-vitro antitumor evaluation. The assay was carried out using 59 human cancer cell lines obtained from nine tumour subpanels (breast, ovarian, melanoma, leukaemia, renal, CNS, lung, prostate, and colon cancer cell lines). Compounds were assessed at a 10 µM concentration. […] Also, hybrids 4a, 4b, 4e, 4i and 4j produced significant anti-proliferative effect in several cancer cells, particularly in leukaemia (RPMI-8226) and colon (HCT116) cells with growth percent of 47.87, −14.59, −24.56, −24.42, −15.84, −9.74, −53.36, −10.26, −31.29, and −39.51%, respectively.
(§2) The method description for NCI anticancer screening is provided in detail in the standard NCI-60 testing protocol.

[2] = test system: OVCAR-5; test: NCI one-dose screen; conditions: Homo sapiens; OVCAR-5, 10 µM; read-out: Growth Percent
Method: as §1, §2

[3] = test system: HOP-62; test: NCI one-dose screen; conditions: Homo sapiens; HOP-62, 10 µM; read-out: Growth Percent
Method: as §1, §2

[4] = test system: HOP-92; test: NCI one-dose screen; conditions: Homo sapiens; HOP-92, 10 µM; read-out: Growth Percent
Method: as §1, §2

[5] = test system: SK-MEL-28; test: NCI one-dose screen; conditions: Homo sapiens; SK-MEL-28, 10 µM; read-out: Growth Percent
Method: as §1, §2

[6] = test system: T-47D; test: NCI one-dose screen; conditions: Homo sapiens, T47D, read-out: Growth Percent
Method: as §1, §2

[7] = test system: A549/ATCC; test: NCI one-dose screen; conditions: Homo sapiens, read-out: Growth Percent
Method: as §1, §2

[8] = test system: RXF 393; test: NCI one-dose screen; conditions: Homo sapiens; RXF 393, 10 µM; read-out: Growth Percent
Method: as §1, §2

[9] = test system: HCC-2998; test: NCI one-dose screen; conditions: Homo sapiens; HCC-2998, 10 µM; read-out: Growth Percent
Method: as §1, §2

[10] = test system: NCI-H226; test: NCI one-dose screen; conditions: Homo sapiens; NCI-H226, 10 µM; read-out: Growth Percent
Method: as §1, §2

[11] = test system: MALME-3M; test: NCI one-dose screen; conditions: Homo sapiens, read-out: Growth Percent
Method: as §1, §2

[12] = test system: LOX IMVI; test: NCI one-dose screen; conditions: Homo sapiens, read-out: Growth Percent
Method: as §1, §2

[13] = test system: UACC-62; test: NCI one-dose screen; conditions: Homo sapiens; UACC-62, 10 µM; read-out: Growth Percent
Method: as §1, §2

[14] = test system: UACC-257; test: NCI one-dose screen; conditions: Homo sapiens; UACC-257, 10 µM; read-out: Growth Percent
Method: as §1, §2

[15] = test system: NCI-H522; test: NCI one-dose screen; conditions: Homo sapiens; NCI-H522, 10 µM; read-out: Growth Percent
Method: as §1, §2

[16] = test system: SR; test: NCI one-dose screen; conditions: Homo sapiens, read-out: Growth Percent
Method: as §1, §2

[17] = test system: OVCAR-8; test: NCI one-dose screen; conditions: Homo sapiens; OVCAR-8, 10 µM; read-out: Growth Percent
Method: as §1, §2

[18] = test system: HCT-15; test: NCI one-dose screen; conditions: Homo sapiens; HCT-15, 10 µM; read-out: Growth Percent
Method: as §1, §2

[19] = test system: OVCAR-3; test: NCI one-dose screen; conditions: Homo sapiens; OVCAR-3, 10 µM; read-out: Growth Percent
Method: as §1, §2

[20] = test system: ACHN; test: NCI one-dose screen; conditions: Homo sapiens, read-out: Growth Percent
Method: as §1, §2

[21] = test system: HS 578T; test: NCI one-dose screen; conditions: Homo sapiens, read-out: Growth Percent
Method: as §1, §2

[22] = test system: 786-0; test: NCI one-dose screen; conditions: Homo sapiens; 786-0, 10 µM; read-out: Growth Percent
Method: as §1, §2

[23] = test system: U251; test: NCI one-dose screen; conditions: Homo sapiens, U-251; U251, 10 µM; read-out: Growth Percent
Method: as §1, §2

[24] = test system: BT-549; test: NCI one-dose screen; conditions: Homo sapiens; BT-549, 10 µM; read-out: Growth Percent
Method: as §1, §2

[25] = test system: SF-268; test: NCI one-dose screen; conditions: Homo sapiens; SF-268, 10 µM; read-out: Growth Percent
Method: as §1, §2

[26] = test system: MDA-MB-435; test: NCI one-dose screen; conditions: Homo sapiens; MDA-MB-435, 10 µM; read-out: Growth Percent
Method: as §1, §2

[27] = test system: PC-3; test: NCI one-dose screen; conditions: Homo sapiens; PC-3, 10 µM; read-out: Growth Percent
Method: as §1, §2

[28] = test system: MDA-MB-468; test: NCI one-dose screen; conditions: Homo sapiens; MDA-MB-468, 10 µM; read-out: Growth Percent
Method: as §1, §2

[29] = test system: MCF7; test: NCI one-dose screen; conditions: Homo sapiens; MCF7, 10 µM; read-out: Growth Percent
Method: as §1, §2

[30] = test system: SNB-75; test: NCI one-dose screen; conditions: Homo sapiens; SNB-75, 10 µM; read-out: Growth Percent
Method: as §1, §2

[31] = test system: SW-620; test: NCI one-dose screen; conditions: Homo sapiens; SW-620, 10 µM; read-out: Growth Percent
Method: as §1, §2

[32] = test system: IGROV1; test: NCI one-dose screen; conditions: Homo sapiens, IGROV-1; IGROV1, 10 µM; read-out: Growth Percent
Method: as §1, §2

[33] = test system: NCI/ADR-RES; test: NCI one-dose screen; conditions: Homo sapiens, read-out: Growth Percent
Method: as §1, §2

[34] = test system: HCT116; test: MTT assay; conditions: Homo sapiens, HCT-116, 24 h incubation
How it was run: (§3)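 Colorectal lines treated with 1, 5, 10, 20, 40, 80 or 100 µM compound, or DMSO vehicle. Proliferation read by MTT reduction.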

[35] = test system: HT-29; test: MTT assay; conditions: Homo sapiens; HT-29, MTT assay, 24 h incubation
How it was run: as §3

[36] = test system: Caco-2; test: MTT assay; conditions: Homo sapiens; Caco-2, MTT assay, 24 h incubation
How it was run: as §3

Row | SMILES | activity at 10 µM [1] [%] | activity at 10 µM [2] [%] | activity at 10 µM [3] [%] | activity at 10 µM [4] [%] | activity at 10 µM [5] [%] | activity at 10 µM [6] [%] | activity at 10 µM [7] [%] | activity at 10 µM [8] [%] | activity at 10 µM [9] [%] | activity at 10 µM [10] [%] | activity at 10 µM [11] [%] | activity at 10 µM [12] [%] | activity at 10 µM [13] [%] | activity at 10 µM [14] [%] | activity at 10 µM [15] [%] | activity at 10 µM [16] [%] | activity at 10 µM [17] [%] | activity at 10 µM [18] [%] | activity at 10 µM [19] [%] | activity at 10 µM [20] [%] | other results
1 | CN(C)c1ccc(/C=C/C(=O)c2ccc(-n3cc(CN4CCN(c5cc6c(cc5F)c(=O)c(C(=O)O)cn6C5CC5)CC4)nn3)cc2)cc1 [Compound 4h, (E)-1-cyclopropyl-7–(4-((1–(4-(3-(4-(dimethylamino)phenyl)acryloyl)phenyl)-1H-1,2,3-triazol-4-yl)methyl)piperazin-1-yl)-6-fluoro-4-oxo-1,4-dihydroquinoline-3-carboxylic acid] | 95.5 | 109 | 81.3 | 76.2 | 100 | 86.7 | 93.5 | 70.9 | 92.4 | 84.6 | 96 | 56.9 | 77.6 | 101 | 88.6 | 63.2 | 62.5 | 97.6 | 96 | 89.8 | activity at 10 µM [21]: 80.5%; activity at 10 µM [22]: 65%; activity at 10 µM [23]: 73%; activity at 10 µM [24]: 73.7%; activity at 10 µM [25]: 71.5%; activity at 10 µM [26]: 77.4%; activity at 10 µM [27]: 89.6%; activity at 10 µM [28]: 77.1%; activity at 10 µM [29]: 59.2%; activity at 10 µM [30]: 70.8%; activity at 10 µM [31]: 98.5%; activity at 10 µM [32]: 69.9%; activity at 10 µM [33]: 103%; IC50 [34]: 5.09 ± 2.74 µM; IC50 [35]: 21.7 ± 2.74 µM; IC50 [36]: 6.39 ± 1.41 µM
2 | COc1ccc(/C=C/C(=O)c2ccc(-n3cc(CN4CCN(c5cc6c(cc5F)c(=O)c(C(=O)O)cn6C5CC5)CC4)nn3)cc2)cc1OC [Compound 4i, (E)-1-cyclopropyl-7-(4-((1-(4-(3–(3,4-dimethoxyphenyl)acryloyl)phenyl)-1H-1,2,3-triazol-4-yl)methyl)piperazin-1-yl)-6-fluoro-4-oxo-1,4-dihydroquinoline-3-carboxylic acid] | 97 | 92.1 | 75.6 | 66.5 | 79.8 | 78.6 | 66.1 | 64.2 | 44 | 67.3 | 66.2 | 27.9 | 53.9 | 78.7 | 67.6 | -2.25 | 67.4 | 80.6 | 39.3 | 85 | activity at 10 µM [21]: 52.8%; activity at 10 µM [22]: 71.9%; activity at 10 µM [23]: 41.4%; activity at 10 µM [24]: 65.8%; activity at 10 µM [25]: 56%; activity at 10 µM [26]: 22.2%; activity at 10 µM [27]: 56.3%; activity at 10 µM [28]: 26.3%; activity at 10 µM [29]: 13.2%; activity at 10 µM [30]: 58.3%; activity at 10 µM [31]: 32.8%; activity at 10 µM [32]: 26.6%; activity at 10 µM [33]: 90.7%; IC50 [34]: 4.87 ± 0.78 µM; IC50 [35]: 18.6 ± 3.19 µM; IC50 [36]: 11.3 ± 2.39 µM
